# According to PMC5062114, “Dual-targeting anti-angiogenic cyclic peptides as potential drug leads for cancer therapy” (Scientific Reports, 2016):
# Where two headings read alike, the source gives them in different places. Bridge positions count the residues as written; N and C are the ends. Square brackets hold non-standard residues; d marks the D form. Ends that are not written are not given here. Peptide text beside a SMILES is read from it.
# Legend:
# HT-29 = experiment: cells
# Method: (§1) HUVECs (human umbilical vein endothelial cells) were cultured in EGM™-2 BulletKit™ supplemented with SingleQuots™ (supplements: growth factors, cytokines, antibiotics; Lonza) and 10% FBS (catalog no. FFBS-500; Scientifix). Both HT-29 and MCF-7 cells were cultured in 10% FBS/DMEM (Dulbecco’s Modified Eagle Medium) with 1% penicillin–streptomycin (5000 U/mL; Life Technologies), whereas PC3 cells (prostate cancer cells) were cultured in 10% FBS/RPMI (Roswell Park Memorial Institute) 1640 with 1% penicillin–streptomycin (5000 U/mL; Life Technologies). All cells were maintained at 37 °C in 5% CO2.
# (§2) Cell cytotoxicity and proliferation assays were performed using similar methods to those described by Chan et al.[45]. All cells were maintained using the media conditions described above, and passages two to ten were used for all cell lines. For all cell lines, 5.0 × 10^3 cells/well (100 μL) and 1.5 × 10^3 cells/well (100 μL) were used for cell cytotoxicity and cell proliferation assays, respectively. All peptides (10 μL, at final concentrations ranging from 0.05–100 μM) and drugs, which included cilengitide, octreotide and sunitinib (at final concentrations ranging from 0.00001–100 μM), were used in both assays. Triton X-100 (0.1% (v/v); 10 μL) was used as a positive control. Cells were treated with fresh media the day after plating, before the addition of peptides, followed by a subsequent 2-h and 48-h incubation for cell cytotoxicity and cell proliferation, respectively. After different incubation periods, 3-(4, 5-dimethylthiazolyl-2)-2,5-diphenyltetrazolium bromide (MTT) (10 μL; 5 mg/mL in PBS) was added, and cells were incubated for a further 4 h. The supernatant was then removed and 100 μL DMSO added to solubilize formazan salts. Experiments were performed in triplicate. Cell numbers were recorded at 600 nm. All data represent average mean ± SD.
# HUVEC = experiment: cells
# Method: as §1, §2
# MCF-7 = experiment: cells
# Method: as §1, §2
# PC3 = experiment: cells
# Method: as §1, §2
# HUVEC migration = experiment: VEGF-mediated HUVEC transwell migration assay; type: cell-based, human; conditions: transwell, 0.3 nM VEGF in bottom chamber, normalized to VEGF control = 100% migration, n ≥ 3; read-out: concentration giving 50% inhibition of HUVEC migration
# Method: Figure 5 Cell migration on VEGF-mediated HUVECs. The percentage of HUVEC migration was analyzed using Prism Version 6 (GraphPad). (A–T) VEGF was used as a positive control with 100% HUVEC migration. All peptides were tested at concentrations ranging from 0.001–50 μM except for cilengitide and octreotide, which were tested in 10-fold dilutions from 10 μM. Peptides were added in the presence of 0.3 nM VEGF (bottom chamber). Data are shown as mean ± SD (n ≥ 3). Data were normalized to the mean VEGF control. P-values are represented as follows: ****p ≤ 0.0001, ***p ≤ 0.001, **p ≤ 0.01, and *p ≤ 0.05.
# A cell migration assay was performed as described by Chan et al.[45] HUVECs between passages three and ten were used. Briefly, initial peptide concentrations of 10–500 μM were prepared for all peptides except SFTI-SST-01, MCo-SST-01, SFTI-SST-02, MCo-SST-02, SFTI-PEDF, MCo-PEDF (0.01–500 μM), cilengitide, octreotide, and MCoAA-02 (1 × 10^−7 M–100 μM). To the apical well, 100 μL of 1 × 10^5 cells/well were seeded and 600 μL of medium supplemented with or without 0.3 nM VEGF (Sigma, catalogue no. V7259) was added to the basolateral well. The well containing cells with 0.1% FBS/EGM-2 basal medium was used as a negative control, and the well containing cells with 0.3 nM VEGF was used as a positive control. All peptides were stimulated with 0.3 nM VEGF. Experiments were done in triplicate. […]
# [1] = Peptide stability assay in human serum; conditions: for stability in human serum over 24 h: RP-HPLC peak height at 215 nm
# Method: Figure 6 Chorionallantoic membrane and stability assays. (A) Comparison of blood vessel count of the linear and grafted peptides. Error bars indicate ± SD (n ≥ 6). […] A one-way ANOVA with Dunnett’s post-test using a multiple comparison test was used for statistical analysis. […] All peptides were compared to 0.3 nM VEGF (highlighted in grey), which is represented as 100% blood vessel growth. […] VEGF was used as the positive control, and octreotide and cilengitide as the negative controls. All images were taken with an original magnification of x16 on an Olympus SZX12 dissecting microscope with a light box. DP capture and DP manager software packages were used during image acquisition. (C) This graph illustrates the percentage of peptide remaining over 24 h in the serum stability assay. […] All data are represented as mean ± SD and were recorded in triplicate. Peptides labeled with an asterisk (*) were tested using the same method except with an additional step – dissolving the centrifuged pellet with 8 M guanidinium chloride before RP-HPLC analysis.
# The overall procedures used to assess peptide stability are based on those described previously by Chan et al.[18] and Ji et al.[19]. A peptide concentration of 300 μM was used, and time points taken at 0, 2, 4, 8, 16, and 24 h. The stability of sunitinib was also examined using this method, except an additional step was added after the final centrifugation step, whereby the pellet was dissolved in 8 M guanidine hydrochloride (300 μL) prior to analysis with RP-HPLC; this additional step was adapted from Ji et al.[19]. Supernantants were analyzed on an Agilent RP-HPLC using a linear 1%/min gradient of 0–50% solvent B with a 0.3 mL/min Phenomenex column. Peak height was used for integration of data at 215 nm and each experiment was performed in triplicate.
# [2] = read-out: IC50 ± S.D., 48 hours, HT-29, cell proliferation inhibition, MTT, 48-h incubation, 1.5 × 10^3 cells/well, triplicate, mean ± SD
# [3] = read-out: IC50 ± S.D., 48 hours, HUVEC, cell proliferation inhibition, MTT, 48-h incubation, 1.5 × 10^3 cells/well, triplicate, mean ± SD
# [4] = read-out: IC50 ± S.D., 48 hours, MCF-7, cell proliferation inhibition, MTT, 48-h incubation, 1.5 × 10^3 cells/well, triplicate, mean ± SD
# [5] = read-out: IC50 ± S.D., 48 hours, PC3, cell proliferation inhibition, MTT, 48-h incubation, 1.5 × 10^3 cells/well, triplicate, mean ± SD
# [6] = human serum, 300 μM, 24 h, triplicate
Compound,IC50 (HT-29; [2]),IC50 (HUVEC; [3]),IC50 (MCF-7; [4]),IC50 (PC3; [5]),IC50 (HUVEC migration),"stability in human serum over 24 h [1, 6]","percentage remaining in human serum at 24 h, excess over sunitinib ([1]; human serum, 300 μM, 24 h, pellet dissolved in 8 M guanidine hydrochloride, RP-HPLC 215 nm, triplicate)","remaining at 24 h, 300 μM ([1]; human, serum)",IC50 (HT-29; 4 h),IC50 (HUVEC; 4 h),IC50 (MCF-7; 4 h),IC50 (PC3; 4 h)
"CC[C@H](C)[C@@H]1NC(=O)[C@@H]2CSSC[C@@H]3NC(=O)[C@H](C(C)C)NC(=O)CNC(=O)CNC(=O)[C@H](CC(=O)O)NC(=O)[C@H](CO)NC(=O)CNC(=O)[C@H](CO)NC(=O)CNC(=O)[C@@H]4CSSC[C@H](NC(=O)[C@H](CC(=O)O)NC(=O)[C@H](CO)NC(=O)[C@H](CC(=O)O)NC(=O)[C@H](CCCNC(=N)N)NC(=O)[C@H](CCCNC(=N)N)NC(=O)[C@H](CSSC[C@H](NC1=O)C(=O)N[C@@H](CCCNC(=N)N)C(=O)N[C@@H](Cc1ccc(O)cc1)C(=O)N[C@H](Cc1c[nH]c5ccccc15)C(=O)N[C@@H](CCCCN)C(=O)N[C@@H](C(C)C)C(=O)N4)NC(=O)[C@H](CCCCN)NC(=O)[C@H](CCCCN)NC(=O)[C@H](CC(C)C)NC(=O)[C@H]([C@@H](C)CC)NC(=O)[C@H](CCCCN)NC(=O)[C@@H]1CCCN1C3=O)C(=O)N1CCC[C@H]1C(=O)NCC(=O)N[C@@H](C)C(=O)N2 [MCo-SST-01] (cyclo(ACICRY[dW]KVCGSGSDGGVCPKILKKCRRDSDCPG); disulfide 2-19, 4-26, 10-32 (inferred); ring closure inferred)",74.13 ± 0.07 µM,17.12 ± 0.05 µM,> 100 µM,85.44 ± 0.08 µM,0.005 µM,,,,,,,
"CC[C@H](C)[C@@H]1NC(=O)[C@@H]2CSSC[C@@H]3NC(=O)CNC(=O)[C@H](Cc4ccccc4)NC(=O)[C@@H]4CCCN4C(=O)[C@H](CCC(N)=O)NC(=O)[C@H](CC(N)=O)NC(=O)[C@H](CC(C)C)NC(=O)[C@H](Cc4c[nH]cn4)NC(=O)[C@H](Cc4ccc(O)cc4)NC(=O)CNC(=O)[C@@H]4CSSC[C@H](NC(=O)[C@H](CC(=O)O)NC(=O)[C@H](CO)NC(=O)[C@H](CC(=O)O)NC(=O)[C@H](CCCNC(=N)N)NC(=O)[C@H](CCCNC(=N)N)NC(=O)[C@H](CSSC[C@H](NC1=O)C(=O)N[C@@H](CCCNC(=N)N)C(=O)N[C@@H](Cc1ccc(O)cc1)C(=O)N[C@H](Cc1c[nH]c5ccccc15)C(=O)N[C@@H](CCCCN)C(=O)N[C@@H](C(C)C)C(=O)N4)NC(=O)[C@H](CCCCN)NC(=O)[C@H](CCCCN)NC(=O)[C@H](CC(C)C)NC(=O)[C@H]([C@@H](C)CC)NC(=O)[C@H](CCCCN)NC(=O)[C@@H]1CCCN1C3=O)C(=O)N1CCC[C@H]1C(=O)NCC(=O)N[C@@H](C)C(=O)N2 [MCoAA-02] (cyclo(ACICRY[dW]KVCGYHLNQPFGCPKILKKCRRDSDCPG); disulfide 2-20, 4-27, 10-33)",19.75 ± 0.07 µM,27.06 ± 0.06 µM,> 100 µM,35.44 ± 0.13 µM,,stable,approximately 20%,> 75%,,,,
CC[C@H](C)[C@@H]1NC(=O)[C@@H]2CCCN2C(=O)[C@@H]2CCCN2C(=O)[C@H]([C@@H](C)CC)NC(=O)[C@H](CO)NC(=O)[C@H](CCCCN)NC(=O)[C@H]([C@@H](C)O)NC(=O)[C@@H]2CSSC[C@H](NC1=O)C(=O)N[C@@H](CCCNC(=N)N)C(=O)N[C@@H](Cc1ccccc1)C(=O)N[C@H](Cc1c[nH]c3ccccc13)C(=O)N[C@@H](CCCCN)C(=O)N[C@@H]([C@@H](C)O)C(=O)N[C@@H](Cc1c[nH]c3ccccc13)C(=O)N2 [SFTI-SST-02] (cyclo(CRF[dW]KTWCTKSIPPI); disulfide 1-8),43.29 ± 0.04 µM,> 100 µM,55.13 ± 0.07 µM,> 100 µM,,,,,,,,
CC[C@H](C)[C@@H]1NC(=O)[C@H](CCCNC(=N)N)NC(=O)[C@H](CCCNC(=N)N)NC(=O)[C@H](CCCNC(=N)N)NC(=O)[C@H](CCCCN)NC(=O)[C@H](CCCNC(=N)N)NC(=O)[C@H](CCCNC(=N)N)NC(=O)[C@@H]2CSSC[C@H](NC1=O)C(=O)N[C@@H](Cc1ccccc1)C(=O)N1CCC[C@H]1C(=O)N[C@@H](CC(=O)O)C(=O)NCC(=O)N[C@@H](CCCNC(=N)N)C(=O)N2 [SFTI-polyR-L1] (cyclo(CFPDGRCRRKRRRI); disulfide 1-7),82.27 ± 0.13 µM,> 100 µM,28.72 ± 0.15 µM,> 100 µM,,,,,,,,
CC[C@H](C)[C@@H]1NC(=O)[C@@H]2CCCN2C(=O)[C@@H]2CCCN2C(=O)[C@H]([C@@H](C)CC)NC(=O)[C@H](CO)NC(=O)[C@H](CCCCN)NC(=O)[C@H]([C@@H](C)O)NC(=O)[C@@H]2CSSC[C@H](NC1=O)C(=O)N[C@@H](CCCNC(=N)N)C(=O)N[C@@H](CCCNC(=N)N)C(=O)N[C@@H](CCCCN)C(=O)N[C@@H](CCCNC(=N)N)C(=O)N[C@@H](CCCNC(=N)N)C(=O)N[C@@H](CCCNC(=N)N)C(=O)N2 [SFTI-polyR-L2] (cyclo(CRRKRRRCTKSIPPI); disulfide 1-8),> 100 µM,> 100 µM,41.84 ± 0.07 µM,> 100 µM,,,,,,,,
"CC(C)[C@H](NC(=O)[C@H](CCCCN)NC(=O)[C@@H](Cc1c[nH]c2ccccc12)NC(=O)[C@@H](N)Cc1ccc(O)cc1)C(=O)O [SST-01, reference compound] (H-Y[dW]KV-OH; N-terminus assumed)",,,,,,more stable than PEDF,,,> 100 µM,57.54 ± 0.04 µM,> 100 µM,> 100 µM
"C[C@@H](O)[C@H](NC(=O)[C@H](CCCCN)NC(=O)[C@@H](Cc1c[nH]c2ccccc12)NC(=O)[C@H](Cc1ccccc1)NC(=O)[C@@H](N)CCCNC(=N)N)C(=O)N[C@@H](Cc1c[nH]c2ccccc12)C(=O)O [SST-02, reference compound] (H-RF[dW]KTW-OH)",,,,,,,,,> 100 µM,> 100 µM,> 100 µM,> 100 µM
"YHLNQPF [PEDF, reference compound]",> 100 µM,19.4 ± 0.08 µM,> 100 µM,> 100 µM,,,,,,,,
